This is an account of results in patent US10106515B2, “1-(cyclopent-2-en-1-yl)-3-(2-hydroxy-3-(arylsulfonyl)phenyl)urea derivatives as CXCR2 inhibitors” (GLAXOSMITHKLINE INTELLECTUAL PROPERTY DEVELOPMENT LIMITED, priority 2014, dated 2018).

The target in one assay is T1, recombinant human CXCR2 (Homo sapiens, UniProt P25025).
T1 construct: TEV protease site; Gal4-VP16 transcription factor
T1 sequence (P25025 1-360): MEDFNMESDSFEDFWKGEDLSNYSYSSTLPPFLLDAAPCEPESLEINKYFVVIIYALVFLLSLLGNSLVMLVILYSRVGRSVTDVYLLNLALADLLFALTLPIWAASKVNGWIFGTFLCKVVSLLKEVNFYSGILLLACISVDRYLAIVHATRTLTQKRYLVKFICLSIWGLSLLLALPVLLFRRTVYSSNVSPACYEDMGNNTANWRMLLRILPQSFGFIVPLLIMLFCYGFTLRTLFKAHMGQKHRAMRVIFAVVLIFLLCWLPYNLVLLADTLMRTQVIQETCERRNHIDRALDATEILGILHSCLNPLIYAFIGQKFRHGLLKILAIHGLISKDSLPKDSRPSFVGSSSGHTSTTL
In words: CXCR2 Tango assay. The format is cell-based. The conditions noted are these: mean pIC50 of multiple test results; stimulated with 80 nM hCXCL1; reporter gene blue/green emission ratio; read-out: pIC50 (CXCR2 Tango assay) (converted). In short, it runs like this:
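A stable cell line carries human CXCR2 fused to a TEV site and Gal4-VP16, with protease-tagged arrestin. Cells (~10,000/well) were stimulated overnight at 37 °C with 80 nM hCXCL1 and a 10-point compound dilution. CCF4-AM beta-lactamase FRET (460/530 nm ratio) was read, normalized to hCXCL1 and DMSO, and mean pIC50 reported.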

Assay [1] concerns upregulation of CD11b in GROα stimulated neutrophils in human whole blood. In words: Human whole blood assay (CD11b upregulation). The following applies: Neutrophil, inhibition of CD11b upregulation, GROα 33 nM final, flow cytometry, read-out: pIC50 (human whole blood assay) (converted). Type of assay: cell-based. The protocol:
The whole blood assay tested the compounds' ability to inhibit the upregulation of CD11b in GROα stimulated neutrophils in human whole blood.
Blood was withdrawn by venipuncture from consented adults and poured into a Sterilin tube containing an anti-coagulant Heparin (10 uL/mL of blood). All the test compounds were dissolved in DMSO to 4 mM and serial diluted across the plate, 1 in 3 to provide 10 point dose response curves. The compounds were then diluted 100 fold in -PBS [Phosphate buffered saline (without Calcium Chloride and Magnesium Chloride)] after which, 1 uL was dispensed in 96 U bottom Costar plates using an FX.
10 uL of blood was transferred to the compound plate using a multi-channel pipette, gently tapped and incubated for 15 minutes, at 37° C. After 15 minutes, the stimulant GROα was diluted to 100 nM in 0.1% BSA (Albumin Bovine Serum)-PBS and 5 uL is dispensed across the whole plate for a final concentration of 33 nM. The plate was gently tapped and incubated further for 15 minutes at 37° C. The plate was placed on ice for 1 minute before addition of 10 uL of an antibody cocktail consisting of CD11b-FITC (40 ug/mL) purchased from BioLegend (address: Cambridge Bioscience, Munro House, Trafalgar Way, Bar Hill, Cambridge, UK) and CD16-PE purchased from BD Pharmingen (address: The Danby Building, Edmung Halley Road, Oxford Science Park, Oxford, UK) (stock concentration 100 tests, 2 mL stock volume is diluted 1 in 5). The plate was placed on ice for 1 hour in the dark. The cells were then fixed using 200 uL/well of 1×FACS (Flow Activated Cell Sorting) Lyse solution (Becton and Dickinson-BD) and on ice for 20 minutes in the dark. The plate was centrifuged at 1600 rpm for 5 minutes and re-suspended with 200 uL of ice cold PBS. This step was repeated twice and on the final step the plate was re-suspended with 50 uL of ice cold -PBS for flow Cytometric analysis.
Samples were run on a Becton and Dickinson (BD)-Acurri C6 Flow Cytometer using a HyperCyt sampling apparatus (IntelliCyt) with a flow rate 2 uL/sec. CD11b upregulation is monitored in neutrophils and identified using a combination of both side scatter and CD16 expression.

Counter-ions that a name gives are not always drawn. Some results are limits rather than exact numbers.

Take `CC1=CCC[C@H]1NC(=O)Nc1ccc(C#N)c(S(=O)(=O)C(C)(C)F)c1O` [Compound 123, (R)-1-(4-cyano-3-((2-fluoropropan-2-yl)sulfonyl)-2-hydroxyphenyl)-3-(2-methylcyclopent-2-en-1-yl)urea]: the IC50 at recombinant human CXCR2 was at most 1 nM; in assay [1], 25.1 to 2510 nM.

For the compound `CC1=CCC[C@H]1NC(=O)Nc1ccc(C#N)c(S(=O)(=O)C(C)(C)C)c1O` [Compound 191, (R)-1-(3-(tert-butylsulfonyl)-4-cyano-2-hydroxyphenyl)-3-(2-methylcyclopent-2-en-1-yl)urea], the IC50 is at most 1 nM at recombinant human CXCR2 and 25.1 to 2510 nM in assay [1].

`CC1=CCC[C@H]1NC(=O)Nc1ccc(Cl)c(S(=O)(=O)C(F)(F)CN(C)C)c1O` [Compound 136, (R)-1-(4-chloro-3-((2-(dimethylamino)-1,1-difluoroethyl)sulfonyl)-2-hydroxyphenyl)-3-(2-methylcyclopent-2-en-1-yl)urea]: the IC50 is at most 10 nM on recombinant human CXCR2 and 25.1 to 2510 nM in assay [1].

For the compound `CC1=CCC[C@H]1NC(=O)Nc1ccc(Cl)c(S(=O)(=O)C(C)(F)F)c1O` [Compound 194, (R)-1-(4-chloro-3-((1,1-difluoroethyl)sulfonyl)-2-hydroxyphenyl)-3-(2-methylcyclopent-2-en-1-yl)urea], the IC50 is at most 1 nM on recombinant human CXCR2 and 25.1 to 2510 nM in assay [1].

With `CCN1CCC(F)(S(=O)(=O)c2c(Cl)ccc(NC(=O)N[C@@H]3CCC=C3Cl)c2O)CC1` [Compound 200, (R)-1-(4-chloro-3-((1-ethyl-4-fluoropiperidin-4-yl)sulfonyl)-2-hydroxphenyl)-3-(2-chlorocyclopent-2-en-1-yl)urea], the results for the IC50 (at recombinant human CXCR2; in assay [1]) were at most 1 nM and 25.1 to 2510 nM, respectively.

In the case of `CC1=CCC[C@H]1NC(=O)Nc1ccc(Cl)c(S(=O)(=O)C2CC(F)(F)C2)c1O` [Compound 76, (R)-1-(4-chloro-3-((3,3-difluorocyclobutyl)sulfonyl)-2-hydroxyphenyl)-3-(2-methylcyclopent-2-en-1-yl)urea trifluoroacetic acid salt], the results for the IC50 (on recombinant human CXCR2; in assay [1]) were at most 1 nM and 25.1 to 2510 nM, respectively.

As to `CC1=CCCC1NC(=O)Nc1ccc(Cl)c(S(=O)(=O)C(C)C)c1O` (stereo not drawn) [Compound 20, 1-(4-chloro-2-hydroxy-3-(isopropylsulfonyl)phenyl)-3-(2-methylcyclopent-2-en-1-yl)urea], the IC50 on recombinant human CXCR2 is at most 1 nM; in assay [1], 25.1 to 2510 nM.

Regarding `CC1=CCC[C@H]1NC(=O)Nc1ccc(Cl)c(S(=O)(=O)C2CCN(C3CCC3)CC2)c1O` [Compound 82, (R)-1-(4-chloro-3-((1-cyclobutylpiperidin-4-yl)sulfonyl)-2-hydroxyphenyl)-3-(2-methylcyclopent-2-en-1-yl)urea trifluoroacetic acid salt], the values for the IC50 (on recombinant human CXCR2; in assay [1]) were at most 1 nM and 25.1 to 2510 nM, respectively.

For the compound `CC1(S(=O)(=O)c2c(Cl)ccc(NC(=O)N[C@@H]3CCC=C3Cl)c2O)CCOCC1` [Compound 40, (R)-1-(4-chloro-2-hydroxy-3-((4-methyltetrahydro-2H-pyran-4-yl)sulfonyl)phenyl)-3-(2-chlorocyclopent-2-en-1-yl)urea], the figures for the IC50 (on recombinant human CXCR2; in assay [1]) were at most 10 nM and 25.1 to 2510 nM, respectively.

Regarding `CC1(S(=O)(=O)c2c(Cl)ccc(NC(=O)N[C@@H]3CCC=C3Cl)c2O)CCOC1` (stereo partly drawn) [Compound 39, 1-(4-chloro-2-hydroxy-3-((3-methyltetrahydro-furan-3-yl)sulfonyl)phenyl)-3-((R)-2-chlorocyclopent-2-en-1-yl)urea], the IC50 on recombinant human CXCR2 was at most 1 nM; in assay [1] it was 25.1 to 2510 nM.

As to `CC1=CCCC1NC(=O)Nc1ccc(Cl)c(S(=O)(=O)C(C)(C)CF)c1O` (stereo not drawn) [Compound 104, 1-(4-chloro-3-((1-fluoro-2-methylpropan-2-yl)sulfonyl)-2-hydroxyphenyl)-3-(2-methylcyclopent-2-en-1-yl)urea], the IC50 on recombinant human CXCR2 is at most 10 nM; in assay [1], 25.1 to 2510 nM.

With `CC1=CCC[C@H]1NC(=O)Nc1ccc(Cl)c(S(=O)(=O)C2(C)CCOCC2)c1O` [Compound 69, (R)-1-(4-chloro-2-hydroxy-3-((4-methyltetrahydro-2H-pyran-4-yl)sulfonyl)phenyl)-3-(2-methylcyclopent-2-en-1-yl)urea], the IC50 on recombinant human CXCR2 is at most 1 nM; in assay [1], 25.1 to 2510 nM.

In the case of `CC1=CCCC1NC(=O)Nc1ccc(Cl)c(S(=O)(=O)C2CCOCC2)c1O` (stereo not drawn) [Compound 110, 1-(4-chloro-2-hydroxy-3-((tetrahydro-2H-pyran-4-yl)sulfonyl)phenyl)-3-(2-methylcyclopent-2-en-1-yl)ureac], the IC50 is at most 10 nM on recombinant human CXCR2 and 25.1 to 2510 nM in assay [1].

Take `CO[C@H]1COC[C@@H]1S(=O)(=O)c1c(Cl)ccc(NC(=O)N[C@@H]2CCC=C2C)c1O` [Compound 151, 1-(4-chloro-2-hydroxy-3-(((3S,4S)-4-methoxytetrahydro-furan-3-yl)sulfonyl)phenyl)-3-((R)-2-methylcyclopent-2-en-1-yl)urea]: the IC50 on recombinant human CXCR2 was at most 10 nM; in assay [1], 25.1 to 2510 nM.

In the case of `CN(C)[C@H]1C[C@H](S(=O)(=O)c2c(Cl)ccc(NC(=O)N[C@@H]3CCC=C3Cl)c2O)C1` [Compound 184, 1-(4-chloro-3-((trans-3-(dimethylamino)cyclobutyl)sulfonyl)-2-hydroxyphenyl)-3-((R)-2-chlorocyclopent-2-en-1-yl)urea, trifluoroacetic acid salt], the IC50 was at most 10 nM at recombinant human CXCR2 and 25.1 to 2510 nM in assay [1].

In the case of `CC1=CCC[C@H]1NC(=O)Nc1ccc(Cl)c(S(=O)(=O)C(C)c2ccccn2)c1O` (stereo partly drawn) [Compound 23, 1-(4-chloro-2-hydroxy-3-((1-(pyridin-2-yl)ethyl)sulfonyl)phenyl)-3-((R)-2-methylcyclopent-2-en-1-yl)urea, trifluoroacetic acid salt], the results for the IC50 (at recombinant human CXCR2; in assay [1]) were at most 1 nM and 25.1 to 2510 nM, respectively.

For `CC1=CCC[C@H]1NC(=O)Nc1ccc(Cl)c(S(=O)(=O)C2(F)CCOCC2)c1O` [Compound 75, (R)-1-(4-chloro-3-((4-fluorotetrahydro-2H-pyran-4-yl)sulfonyl)-2-hydroxyphenyl)-3-(2-methylcyclopent-2-en-1-yl)urea], the IC50 on recombinant human CXCR2 was at most 1 nM; in assay [1], 25.1 to 2510 nM.

With `CC1=CCC[C@H]1NC(=O)Nc1ccc(Cl)c(S(=O)(=O)C2(CF)CCOCC2)c1O` [Compound 72, (R)-1-(4-chloro-3-((4-(fluoromethyl)tetra-hydro-2H-pyran-4-yl)sulfonyl)-2-hydroxyphenyl)-3-(2-methylcyclopent-2-en-1-yl)urea], the figures for the IC50 (on recombinant human CXCR2; in assay [1]) were at most 10 nM and 25.1 to 2510 nM, respectively.

On to `CC1=CCC[C@H]1NC(=O)Nc1ccc(Cl)c(S(=O)(=O)N2CCN(C)CC2)c1O` [Compound 141, (R)-1-(4-chloro-2-hydroxy-3-((4-methylpiperazin-1-yl)sulfonyl)phenyl)-3-(2-methylcyclopent-2-en-1-yl)urea, trifluoroacetic acid salt], for which the results for the IC50 (at recombinant human CXCR2; in assay [1]) were at most 10 nM and 25.1 to 2510 nM, respectively.

With `COC[C@H](C)S(=O)(=O)c1c(Cl)ccc(NC(=O)N[C@@H]2CCC=C2C)c1O` [Compound 186, 1-(4-chloro-2-hydroxy-3-(((S)-1-methoxypropan-2-yl)sulfonyl)phenyl)-3-((R)-2-methylcyclopent-2-en-1-yl)urea], the IC50 on recombinant human CXCR2 is at most 1 nM; in assay [1], 25.1 to 2510 nM.

With `CC1=CCC[C@H]1NC(=O)Nc1ccc(Cl)c(S(=O)(=O)C(C)(C)C2CCOCC2)c1O` [Compound 60, (R)-1-(4-chloro-2-hydroxy-3-((2-(tetrahydro-2H-pyran-4-yl)propan-2-yl)sulfonyl)phenyl)-3-(2-methylcyclopent-2-en-1-yl)urea], the IC50 is at most 1 nM on recombinant human CXCR2 and 25.1 to 2510 nM in assay [1].
